Experimental data: patent EP3061750A1, “PYRAZOLE AMIDE COMPOUND CONTAINING DIPHENYL ETHER, AND APPLICATION THEREOF, AND PESTICIDE COMPOSITION” (Central China Normal University, priority 2013, dated 2015)
Where two headings read alike, the source gives them in different places.

Legend:
[1] = target: T1, succinate dehydrogenase (Sus scrofa, UniProt A5GZW8+D0VWV4+Q007T0); test: inhibitory activity on succinate dehydrogenase (DCIP reduction at 600 nm); assay type: biochemical, pig
T1 construct: succinate dehydrogenase, which was isolated from pig hearts; from tissue; host or cells: pig heart
Protocol: This test was used to determine the inhibitory activity on the succinate dehydrogenase of the compounds prepared in Example 1, Preparation Examples 1 and 2 .
The enzyme used in the test example was succinate dehydrogenase, which was isolated from pig hearts.
Test Method: total volume was 1.8ml, the system comprised 100mM Na2HPO4-NaH2PO4 buffer (pH7.4), 0.3mM EDTA, 20mM sodium succinate, 53µM DCIP (2,6-dichloro indophenol sodium), 2nM succinate dehydrogenase. In water bath with 23 °C of constant temperature and 600rpm magnetic stirring, the reduction of the light absorption of substrate DCIP was monitored at a wavelength of 600nm, the experimental points within the linear range were collected, that is, the experimental points in which the consumption of substrate was controlled not exceeding 5% were collected. The molar extinction coefficient of DCIP was 21mM^-1cm^-1. The reduction amount of DCIP during the reaction time was calculated and linear slope was fitted, and then the initial velocity of the reaction was obtained by deducting the baseline slope.

[2] = tested on: Rice sheath blight (Rhizoctonia solani); test: pot in vivo assay of bactericidal activity, rice sheath blight; details: for pest or weed control at 200 µg/mL: Rhizoctonia solani, read-out: Efficacy(%) rice sheath blight
Excerpt: (§1) This test is used to determine the bactericidal activity of the compounds prepared in Example 1, Preparation Examples 1 and 2.
(§2) The targets used in the test example are rice sheath blight and cucumber powdery mildew.
Test Method: According to "Standard Practice for determination of pesticide biological activity (SOP)", pyrazole amide compound containing diphenyl ether was dispensed to 5% emulsifiable concentrates (hereinafter referred to as 5% EC), the […] method (pot in vivo assay). The screening results on the two test targets of the compounds prepared in Example 1, Preparation Examples 1 and 2 were shown in Table 4.
Rice sheath blight (Rhizoctonia solani)
Two potted rice seedlings with uniform growth in true leaf stage were chosen, and dried by air after spray treatment. The side of bacteria cake with mycelium was closely attached on the leaves, after cultured at 22-26 °C under dark light in a moisture preserving manner for 24h, then cultured with natural light for about 4 days. The diameter of disease spot of each inoculating point was measured by using a caliper after the control material was fully attacked by disease, and the control effect was calculated.
(§3) Investigation method and grading standard adopted "Guidelines for the field efficacy trials of pesticides", and the control effect was calculated with the disease index. The disease index = Σ(number of diseased leaves at each grade×relative grade value) × 100/(total number of leaves×9); [formula] Control effect (%) = (disease index of control−disease index of treated) × 100/disease index of control. [formula]

[3] = tested on: Cucumber powdery mildew (Sphaerotheca uliginea); test: pot in vivo assay of bactericidal activity, cucumber powdery mildew; details: for pest or weed control at 200 µg/mL: Cucumis sativus, read-out: Efficacy(%) cucumber powery mildew
Excerpt: as §1, §2
Test Method: According to "Standard Practice for determination of pesticide biological activity (SOP)", pyrazole amide compound containing diphenyl ether was dispensed to 5% emulsifiable concentrates (hereinafter referred to as 5% EC), […] method (pot in vivo assay). The screening results on the two test targets of the compounds prepared in Example 1, Preparation Examples 1 and 2 were shown in Table 4.
Cucumber powdery mildew (Sphaerotheca uliginea)
A cucumber seedling with uniform growth in true leaf stage was chosen, and dried in shade for 24h after spray treatment. Fresh cucumber powdery mildew spores on the cucumber leaves were collected and washed, and filtered through a double gauze to prepare a spore suspension with concentration of about 100,000 / ml, then spray inoculation was applied. The test materials inoculated were moved into artificial climate with relative humidity of 60-70% and temperature of 21-23 °C (indoor lighting), after about 10 days, investigating and grading were carried out according to the incidence of the blank control, and the control effect was calculated according to the disease index.
as §3

[4] = concentration 200 mg/L, 5% EC, pot

T1 sequence (Q007T0 29-280): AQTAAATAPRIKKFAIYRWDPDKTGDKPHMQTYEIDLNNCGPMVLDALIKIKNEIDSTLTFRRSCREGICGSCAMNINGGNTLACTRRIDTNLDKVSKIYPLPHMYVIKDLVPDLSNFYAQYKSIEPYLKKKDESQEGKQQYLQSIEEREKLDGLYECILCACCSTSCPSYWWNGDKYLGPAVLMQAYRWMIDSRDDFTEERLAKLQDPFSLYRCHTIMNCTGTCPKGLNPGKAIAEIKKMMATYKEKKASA
T1 sequence (D0VWV4 30-169): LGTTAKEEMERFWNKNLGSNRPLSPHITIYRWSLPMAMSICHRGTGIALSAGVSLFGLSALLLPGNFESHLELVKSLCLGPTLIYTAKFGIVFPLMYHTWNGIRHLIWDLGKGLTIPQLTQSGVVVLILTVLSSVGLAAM
T1 sequence (A5GZW8 57-159 limits assumed): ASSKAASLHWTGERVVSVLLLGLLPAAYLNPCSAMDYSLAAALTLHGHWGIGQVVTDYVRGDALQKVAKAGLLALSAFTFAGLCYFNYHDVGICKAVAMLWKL
T1 sequence (Q0QF01 43-664 partner): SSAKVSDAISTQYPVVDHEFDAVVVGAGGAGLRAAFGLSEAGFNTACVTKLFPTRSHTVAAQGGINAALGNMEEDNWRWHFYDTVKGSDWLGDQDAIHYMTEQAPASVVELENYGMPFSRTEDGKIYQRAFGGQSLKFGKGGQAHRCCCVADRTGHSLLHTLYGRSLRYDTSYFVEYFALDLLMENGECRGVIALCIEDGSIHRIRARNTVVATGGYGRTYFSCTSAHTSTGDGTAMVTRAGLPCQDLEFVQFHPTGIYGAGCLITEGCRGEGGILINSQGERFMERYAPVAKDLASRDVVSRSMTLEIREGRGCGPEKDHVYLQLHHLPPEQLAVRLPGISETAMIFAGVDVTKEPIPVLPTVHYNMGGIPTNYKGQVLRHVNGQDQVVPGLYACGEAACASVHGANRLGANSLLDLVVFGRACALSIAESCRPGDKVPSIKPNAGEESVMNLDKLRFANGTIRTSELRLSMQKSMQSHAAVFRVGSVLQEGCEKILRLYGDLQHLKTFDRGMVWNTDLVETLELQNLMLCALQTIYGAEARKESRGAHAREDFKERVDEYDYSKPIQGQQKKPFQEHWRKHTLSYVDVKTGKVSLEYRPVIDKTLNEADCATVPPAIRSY

## Cn1cc(C(=O)Nc2ccccc2Oc2ccccc2)c(C(F)(F)F)n1 [Comparative compound 12, reference compound]
[1]
  IC50: 19.8 ± 1.07 µM
[1]; read-out: inhibition ratio(%)
  inhibition at 1 µM: 0%
  inhibition at 5 µM: 10%
  inhibition at 10 µM: 22.3%
  inhibition at 20 µM: 38%
  inhibition at 30 µM: 50.3%
  inhibition at 50 µM: 61.8%
[2]
  pest or weed control at 200 µg/mL: 30.9%
[3]
  pest or weed control at 200 µg/mL: 0%

## Cn1cc(C(=O)Nc2ccccc2Oc2ccc(C(C)(C)C)cc2)c(C(F)F)n1 [Comparative compound 21, reference compound]
[1]
  IC50: 1.18 ± 0.0137 µM
[1]; read-out: inhibition ratio(%)
  inhibition at 0.1 µM: 0%
  inhibition at 0.2 µM: 24.7%
  inhibition at 0.3 µM: 27.4%
  inhibition at 0.5 µM: 34.6%
  inhibition at 1 µM: 46.9%
  inhibition at 3 µM: 60.7%
  inhibition at 10 µM: 79.4%
  inhibition at 50 µM: 80.8%
[2]
  pest or weed control at 200 µg/mL: 22.3%
[3]
  pest or weed control at 200 µg/mL: 0%

## Cn1cc(C(=O)Nc2ccccc2Oc2ccc(C(F)(F)F)cc2Cl)c(C(F)F)n1 [Compound II]
[1]
  IC50: 0.0484 ± 0.00171 µM
[1]; concentration 0.01 µM, read-out: inhibition ratio(%)
  inhibition at 0.01 µM: 11.7%
[1]; concentration 0.02 µM, read-out: inhibition ratio(%)
  inhibition at 0.02 µM: 20.8%
[1]; concentration 0.03 µM, read-out: inhibition ratio(%)
  inhibition at 0.03 µM: 31.8%
[1]; concentration 0.05 µM, read-out: inhibition ratio(%)
  inhibition at 0.05 µM: 47.1%
[1]; concentration 0.1 µM, read-out: inhibition ratio(%)
  inhibition at 0.1 µM: 60.7%
[1]; concentration 0.2 µM, read-out: inhibition ratio(%)
  inhibition at 0.2 µM: 75.3%
[1]; concentration 0.5 µM, read-out: inhibition ratio(%)
  inhibition at 0.5 µM: 83.8%
[1]; concentration 1 µM, read-out: inhibition ratio(%)
  inhibition at 1 µM: 91.4%
[1]; concentration 10 µM, read-out: inhibition ratio(%)
  inhibition at 10 µM: 97.9%
[1]; concentration 50 µM, read-out: inhibition ratio(%)
  inhibition at 50 µM: 100%
[2]; [4]
  pest or weed control at 200 µg/mL: 100%
[2]; concentration 0.75 mg/L
  efficacy on rice sheath bilght(%): 43.75%
[2]; concentration 1.5 mg/L
  efficacy on rice sheath bilght(%): 55.34%
[2]; concentration 3.125 mg/L
  efficacy on rice sheath bilght(%): 68.68%
[2]; concentration 6.25 mg/L
  efficacy on rice sheath bilght(%): 70.43%
[2]; concentration 12.5 mg/L
  efficacy on rice sheath bilght(%): 94.62%
[2]; concentration 25 mg/L
  efficacy on rice sheath bilght(%): 98.66%
[2]; concentration 50 mg/L
  efficacy on rice sheath bilght(%): 100%
[2]; concentration 100 mg/L
  efficacy on rice sheath bilght(%): 100%
[3]; [4]
  pest or weed control at 200 µg/mL: 100%
[3]; concentration 6.25 mg/L
  efficacy on cucumber powery mildew(%): 0%
[3]; concentration 12.5 mg/L
  efficacy on cucumber powery mildew(%): 66.67%
[3]; concentration 25 mg/L
  efficacy on cucumber powery mildew(%): 94.44%
[3]; concentration 50 mg/L
  efficacy on cucumber powery mildew(%): 100%
[3]; concentration 100 mg/L
  efficacy on cucumber powery mildew(%): 100%

## Cn1cc(C(=O)Nc2ccccc2Oc2ccc(Cl)cc2Cl)c(C(F)F)n1 [Compound I]
[1]
  IC50: 0.401 ± 0.0103 µM
[1]; read-out: inhibition ratio(%)
  inhibition at 0.03 µM: 18.3%
  inhibition at 0.05 µM: 21.6%
  inhibition at 0.1 µM: 27%
  inhibition at 0.2 µM: 37.4%
  inhibition at 0.3 µM: 42.1%
  inhibition at 0.5 µM: 52.3%
  inhibition at 1 µM: 66.9%
  inhibition at 10 µM: 74.4%
  inhibition at 50 µM: 73%
[2]
  pest or weed control at 200 µg/mL: 100%
[2]; concentration 1 mg/L
  efficacy on rice sheath bilght(%): 20.74%
[2]; concentration 1.5 mg/L
  efficacy on rice sheath bilght(%): 45.38%
[2]; concentration 3.125 mg/L
  efficacy on rice sheath bilght(%): 65.37%
[2]; concentration 6.25 mg/L
  efficacy on rice sheath bilght(%): 68.77%
[2]; concentration 12.5 mg/L
  efficacy on rice sheath bilght(%): 81.72%
[2]; concentration 25 mg/L
  efficacy on rice sheath bilght(%): 95%
[2]; concentration 50 mg/L
  efficacy on rice sheath bilght(%): 98%
[2]; concentration 100 mg/L
  efficacy on rice sheath bilght(%): 100%
[3]
  pest or weed control at 200 µg/mL: 100%
[3]; concentration 100 mg/L
  efficacy on cucumber powery mildew(%): 0%

## Cn1cc(C(=O)Nc2ccccc2Oc2cccc(Cl)c2)c(C(F)(F)F)n1 [III-1]
[1]
  IC50: 36.9 ± 1.47 µM
[2]
  pest or weed control at 200 µg/mL: 68.6%
[3]
  pest or weed control at 200 µg/mL: 22.2%

## Cn1cc(C(=O)Nc2ccccc2Oc2ccc(Cl)cc2Cl)c(C(F)(F)F)n1 [III-2]
[1]
  IC50: 2.7 ± 1.37 µM
[2]
  pest or weed control at 200 µg/mL: 0%
[3]
  pest or weed control at 200 µg/mL: 72.2%

## Cn1cc(C(=O)Nc2ccccc2Oc2ccc(F)cc2)c(C(F)(F)F)n1 [III-3]
[1]
  IC50: > 100 µM
[2]
  pest or weed control at 200 µg/mL: 57%
[3]
  pest or weed control at 200 µg/mL: 0%

## COc1cc(Oc2ccccc2NC(=O)c2cn(C)nc2C(F)(F)F)cc(OC)c1OC [III-4]
[1]
  IC50: > 100 µM
[2]
  pest or weed control at 200 µg/mL: 0%
[3]
  pest or weed control at 200 µg/mL: 0%

## COc1cc(Oc2ccccc2NC(=O)c2cn(C)nc2C(F)F)cc(OC)c1OC [III-5]
[1]
  IC50: > 100 µM
[2]
  pest or weed control at 200 µg/mL: 0%
[3]
  pest or weed control at 200 µg/mL: 0%

## Cn1cc(C(=O)Nc2ccccc2Oc2ccc(C#N)cc2)c(C(F)(F)F)n1 [III-6]
[1]; cells printed as "-" (footnote)
  IC50: > 100 µM
[2]
  pest or weed control at 200 µg/mL: 30.2%
[3]
  pest or weed control at 200 µg/mL: 0%

## Cn1cc(C(=O)Nc2ccccc2Oc2ccc(C#N)cc2)c(C(F)F)n1 [III-7]
[1]
  IC50: > 100 µM
[2]
  pest or weed control at 200 µg/mL: 45%
[3]
  pest or weed control at 200 µg/mL: 0%

## Cn1cc(C(=O)Nc2ccccc2Oc2ccccc2Cl)c(C(F)(F)F)n1 [III-8]
[1]
  IC50: 1.98 ± 1.39 µM
[2]
  pest or weed control at 200 µg/mL: 81.9%
[3]
  pest or weed control at 200 µg/mL: 0%

## Cn1cc(C(=O)Nc2ccccc2Oc2ccc(Cl)cc2)c(C(F)(F)F)n1 [III-9]
[1]; succinate dehydrogenase isolated from pig hearts, pH7.4, 23 °C
  IC50: 4.9 ± 1.28 µM
[2]
  pest or weed control at 200 µg/mL: 66.3%
[3]
  pest or weed control at 200 µg/mL: 0%

## Cn1cc(C(=O)Nc2ccccc2Oc2ccc(Cl)cc2)c(C(F)F)n1 [III-10]
[1]
  IC50: 2.02 ± 1.15 µM
[2]
  pest or weed control at 200 µg/mL: 68.3%
[3]
  pest or weed control at 200 µg/mL: 0%

## Cn1cc(C(=O)Nc2ccccc2Oc2ccc(C(F)(F)F)cc2)c(C(F)(F)F)n1 [III-11]
[1]
  IC50: 3.17 ± 1.12 µM
[2]
  pest or weed control at 200 µg/mL: 56.3%
[3]
  pest or weed control at 200 µg/mL: 0%

## Cn1cc(C(=O)Nc2ccccc2Oc2ccc(C(F)(F)F)cc2)c(C(F)F)n1 [III-12]
[1]
  IC50: 1.62 ± 1.35 µM
[2]
  pest or weed control at 200 µg/mL: 72.3%
[3]
  pest or weed control at 200 µg/mL: 0%

## Cc1cccc(Oc2ccccc2NC(=O)c2cn(C)nc2C(F)(F)F)c1C [III-13]
[1]
  IC50: 9.86 ± 1.27 µM
[2]
  pest or weed control at 200 µg/mL: 63.2%
[3]
  pest or weed control at 200 µg/mL: 0%

## Cc1cccc(Oc2ccccc2NC(=O)c2cn(C)nc2C(F)F)c1C [III-14]
[1]
  IC50: 3.22 ± 1.33 µM
[2]
  pest or weed control at 200 µg/mL: 65.9%
[3]
  pest or weed control at 200 µg/mL: 0%

## Cc1cc(C)cc(Oc2ccccc2NC(=O)c2cn(C)nc2C(F)(F)F)c1 [III-15]
[1]
  IC50: 5.12 ± 1.04 µM
[2]
  pest or weed control at 200 µg/mL: 55.2%
[3]
  pest or weed control at 200 µg/mL: 0%
